According to ChEMBL document CHEMBL1155289, “Stimulatory effect of apigenin-6-C-beta-L-fucopyranoside on insulin secretion and glycogen synthesis” (2009):

Assays:
Type in all cases: functional
Rattus norvegicus [1] = experiment: Antidiabetic activity against glucose loaded Wistar rat assessed as serum glucose level at 10 mg/kg, po by oral glucose tolerance test
Rattus norvegicus [2] = experiment: Antidiabetic activity against glucose loaded Wistar rat assessed as serum glucose level at 10 mg/kg, po after 15 mins by oral glucose tolerance test
Rattus norvegicus [3] = experiment: Antidiabetic activity against glucose loaded Wistar rat assessed as serum glucose level at 10 mg/kg, po after 30 mins by oral glucose tolerance test
Rattus norvegicus [4] = experiment: Antidiabetic activity against glucose loaded Wistar rat assessed as serum glucose level at 10 mg/kg, po after 60 mins by oral glucose tolerance test

With `Cc1cnc(C(=O)NCCc2ccc(S(=O)(=O)NC(=O)NC3CCCCC3)cc2)cn1` [GLIPIZIDE] the Activity (Rattus norvegicus [1]) was 120 mg/dL, the Activity (Rattus norvegicus [2]) was 160 mg/dL and the Activity (Rattus norvegicus [3]) was 143 mg/dL. It also gave an Activity (Rattus norvegicus [4]) of 123 mg/dL.
